In ChEMBL document CHEMBL3046476, “Qsar for Acetylcholinesterase and Butyrylcholinesterase Inhibition by Cardiovascular Drugs and Benzodiazepines” (Med Chem Res, 2005):
pKi: −log10 of the molar value. Where a name gives a salt, the structure may show the parent alone. Activity calls are given as the source filed them. No cut-off for these calls is given here.

How the values were obtained:
[1] = target: Cholinesterase (Equus caballus) (UniProt P81908); experiment: Reversible mixed-type inhibition of Equus caballus (horse) serum butyrylcholinesterase (BChE) assessed as inhibition of BTCh hydrolysis by Ellman method
Acetylcholinesterase = Acetylcholinesterase (Electrophorus electricus, UniProt O42275); experiment: Inhibition of Electrophorus electricus (electric eel) acetylcholinesterase (AChE) assessed as inhibition of ATCh hydrolysis by Ellman method; conditions: for pKi: read-out: Ki; for Ki: read-out: pKi (converted)
Cholinesterase = Cholinesterase (Equus caballus, UniProt P81908); experiment: Inhibition of Equus caballus (horse) serum butyrylcholinesterase (BChE) assessed as inhibition of BTCh hydrolysis by Ellman method; conditions: for pKi: read-out: Ki; for Ki: read-out: pKi (converted)
Sequence of Cholinesterase (P81908 whole entry): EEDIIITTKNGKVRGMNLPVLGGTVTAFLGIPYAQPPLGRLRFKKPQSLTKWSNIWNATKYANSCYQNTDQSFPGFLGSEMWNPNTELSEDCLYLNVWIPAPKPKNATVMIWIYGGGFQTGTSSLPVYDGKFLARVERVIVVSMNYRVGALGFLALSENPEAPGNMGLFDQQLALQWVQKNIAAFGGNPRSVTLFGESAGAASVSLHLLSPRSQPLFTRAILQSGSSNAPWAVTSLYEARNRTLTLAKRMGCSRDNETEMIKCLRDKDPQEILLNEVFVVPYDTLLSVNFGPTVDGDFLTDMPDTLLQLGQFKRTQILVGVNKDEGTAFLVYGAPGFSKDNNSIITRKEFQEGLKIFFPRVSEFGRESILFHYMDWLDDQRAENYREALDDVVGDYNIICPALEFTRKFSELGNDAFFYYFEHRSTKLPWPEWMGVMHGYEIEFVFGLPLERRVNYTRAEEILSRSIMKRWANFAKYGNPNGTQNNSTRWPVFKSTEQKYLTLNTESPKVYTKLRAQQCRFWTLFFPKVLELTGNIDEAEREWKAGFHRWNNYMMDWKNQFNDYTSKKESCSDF

Sequence of Acetylcholinesterase (O42275 whole entry): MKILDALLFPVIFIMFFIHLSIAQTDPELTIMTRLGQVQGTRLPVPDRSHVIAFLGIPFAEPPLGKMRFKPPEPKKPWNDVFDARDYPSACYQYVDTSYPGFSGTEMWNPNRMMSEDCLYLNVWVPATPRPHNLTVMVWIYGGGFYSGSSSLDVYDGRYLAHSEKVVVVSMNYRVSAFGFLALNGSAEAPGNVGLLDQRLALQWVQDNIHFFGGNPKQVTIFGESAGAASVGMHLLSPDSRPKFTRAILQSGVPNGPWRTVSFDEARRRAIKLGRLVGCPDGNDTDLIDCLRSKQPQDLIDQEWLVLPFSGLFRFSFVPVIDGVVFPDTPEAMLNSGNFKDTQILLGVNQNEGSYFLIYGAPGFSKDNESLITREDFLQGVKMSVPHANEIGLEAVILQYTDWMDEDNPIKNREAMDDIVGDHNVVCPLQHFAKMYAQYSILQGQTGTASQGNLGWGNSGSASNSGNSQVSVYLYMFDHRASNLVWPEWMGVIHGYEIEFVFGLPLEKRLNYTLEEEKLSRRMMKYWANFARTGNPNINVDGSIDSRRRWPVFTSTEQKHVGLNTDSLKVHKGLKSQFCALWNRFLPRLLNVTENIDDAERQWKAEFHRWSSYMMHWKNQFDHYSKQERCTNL
Sequence of Cholinesterase (Equus caballus) (P81908 whole entry): as the sequence (P81908 whole entry) above

Compound | inhibition [1] | pKi (Acetylcholinesterase) | Ki (Acetylcholinesterase) | pKi (Cholinesterase) | Ki (Cholinesterase)
CCOC(=O)C1=C(COCCN)NC(C)=C(C(=O)OC)C1c1ccccc1Cl (centres undefined) | Active | – | – | – | –
CNC1=Nc2ccc(Cl)cc2C(c2ccccc2)=[N+]([O-])C1 | Active | – | – | – | –
CN1C(=O)CN=C(c2ccccc2)c2cc(Cl)ccc21 [DIAZEPAM] | Active | 4.89 | 251 µM | – | –
NNc1nncc2ccccc12 [HYDRALAZINE HYDROCHLORIDE] | Active | 5.15 | 251 µM | 5.72 | 5.01 µM
CC[C@H](C)C(=O)O[C@H]1C[C@@H](C)C=C2C=C[C@H](C)[C@H](CC[C@@H]3C[C@@H](O)CC(=O)O3)[C@H]21 [LOVASTATIN] | Active | 5.57 | 251 µM | 5.96 | 5.01 µM
COC(=O)C1=C(C)NC(C)=C(C(=O)OC)C1c1ccccc1[N+](=O)[O-] [NIFEDIPINE] | Active | 5.40 | 251 µM | 5.92 | 5.01 µM
CCC(C)(C)C(=O)O[C@H]1C[C@@H](C)C=C2C=C[C@H](C)[C@H](CC[C@@H]3C[C@@H](O)CC(=O)O3)[C@H]21 [SIMVASTATIN] | – | 5.74 | 251 µM | 6.12 | 5.01 µM
